The values that follow come from US11571430B2, “Platinum(II) ammine selenourea complexes and methods of treating cancer” (KING FAHD UNIVERSITY OF PETROLEUM AND MINERALS, priority 2020, dated 2023).

A word on the IC50: it is the concentration at which inhibition is half-maximal.

Common to all, as to assay type: cell-based, human
One data set has as its system A549 (lung cancer cells). Kind of data set: In vitro cytotoxicity, MTT assay, A549. The settings on record: for IC50: 72 h incubation, A549 lung cancer cells, read-out: IC50 values against A549; for in vitro cytotoxicity in words, A549: A549, compared to cisplatin. The protocol: (§1) The solutions of Pt(II) complexes 1-5 and cisplatin (classical standard control) with 1.0 μM, 5.0 μM, 10.0 μM, 25.0 μM, 50.0 μM and 100.0 μM concentrations were prepared in DMEM. The cancer cells, HeLa (cervical cancer), A549 (Lung cancer) and HCT-116 (colon cancer) were seeded and maintained in quadruplicate in a 96-well tissue culture plate at 5×10^4 cells per well in 200 μL of the same medium. The cancer cells were incubated for 24 hours before the treatment. All compounds were dissolved in 50 vol % DMSO (50/50 v/v DMSO/DMEM). Therefore, DMSO was used as a negative control. The final DMSO concentration in each well, was less than 0.1%. The cancer cells were treated with the synthesized complexes (1-5) along with cisplatin and the resultant cultures were incubated for 72 h. The medium of wells was discarded and 100 μL DMEM containing MTT (3-(4,5-dimethylthiazol-2-yl)-2,5-diphenyltetrazolium bromide) (5 mg/mL) was added to the wells and incubated in a CO2 incubator at 37° C. in the dark for 4 hrs. After incubation, a purple colored formazan (artificial chromogenic dye, a product of the reduction of water insoluble tetrazolium salts e.g., MTT by dehydrogenases and reductases) in the cells is produced and appeared as dark crystals in the bottom of the wells. The medium of culture was discarded from each well carefully to avoid disruption of the monolayer. 100 μL of isopropanol was added in each well. The solution was thoroughly mixed in the wells to dissolve the formazan crystals which ultimately results into a purple solution. The absorbance of the 96-well plate was taken at 570 nm with Mithras 2LB943 against reagent blank.
(§2) The in vitro cytotoxicity of the prepared compounds (1-5) and cisplatin in DMSO was examined by the MTT assay against three human cancer cells namely, HeLa (cervical cancer cells), A549 (lung cancer cells) and HCT-116 (colon cancer cells). The survival of the cells as a function of concentration of compounds 1-5 (and compared to cisplatin) is shown in FIGS. 1A-1F, 2, 3A-3F, 4, 5A-5F, and 6. […] See Altoum A O S, Alhoshani A, Alhosaini K, et al (2017a) Synthesis, characterization and in vitro cytotoxicity of platinum(II) complexes of selenones [Pt(selenone)2Cl2]. J Coord Chem 70:1020-1031; Altoum A O S, Vančo J, Křikavová R, et al (2017b) Synthesis, structural characterization and cytotoxicity evaluation of platinum(II) complexes of heterocyclic selenones. Polyhedron 128:2-8; Ahmad S, Altoum A O S, Vančo J, et al (2018) Synthesis, crystal structure and anticancer activity of tetrakis(N-isopropylimidazolidine-2-selenone)platinum(II) chloride. J Mol Struct 1152:232-236; and Alhoshani A, Seliman A A A, Altoum A O, et al (2019) Synthesis, X-ray structure and in vitro cytotoxicity of trans-diammineplatinum(II) complexes of selenones, trans-[Pt(NH3)2(selenone)2](NO3)2. Polyhedron 158:234-240, each incorporated herein by reference in their entirety.
Background: Tetrazolium dyes change colour on reduction, which living cells bring about.

Data set [1] has as its system HeLa (cervical cancer cells). Kind of data set: In vitro cytotoxicity, MTT assay, HeLa. The settings on record: for IC50: 72 h incubation, HeLa cervical cancer cells, read-out: IC50 values against HeLa; for in vitro cytotoxicity in words, HeLa: compared to cisplatin. The protocol: as §1, §2
Data set [2] has as its system HCT-116 (colon cancer cells). Kind of data set: In vitro cytotoxicity, MTT assay, HCT-116. The settings on record: for IC50: 72 h incubation, HCT-116 colon cancer cells, read-out: IC50 values against HCT-116; for in vitro cytotoxicity in words, HCT-116: HCT-116, compared to cisplatin. The protocol: as §1, §2

Molecules are shown by their SMILES. “Also recorded” adds a separate entry of the source.

Consider `N.N.[Cl][Pt][Cl]` [Cisplatin, cis-diamminedichloridoplatinum(II), reference compound], for which the values for the IC50 (in the data set on A549 (lung cancer cells); in data set [1]; in data set [2]) were 12.5 µM, 8.1 µM and more than 100 µM, respectively.
In the case of `N.N.NC(N)=[Se][Pt+2][Se]=C(N)N.O=[N+]([O-])[O-].O=[N+]([O-])[O-]` [Complex 1, [Pt(NH3)2(Seu)2](NO3)2], in the data set on A549 (lung cancer cells), the IC50 was more than 100 µM and the “in vitro cytotoxicity in words, A549” value was “no activity”. In addition, in data set [1], the IC50 is more than 100 µM and the “in vitro cytotoxicity in words, HeLa” value was “no activity”. Moreover, in data set [2], the IC50 was found to be 5.4 µM and the “in vitro cytotoxicity in words, HCT-116” value is given as “has activity against HCT-116 only; also recorded: excellent cytotoxic activity”.
`CNC(NC)=[Se][Pt+2][Se]=C(NC)NC.N.N.O=[N+]([O-])[O-].O=[N+]([O-])[O-]` [Complex 2, [Pt(NH3)2(Me2Seu)2](NO3)2]: in the data set on A549 (lung cancer cells), the IC50 turned out to be 54 µM and the “in vitro cytotoxicity in words, A549” value was “almost inactive”. In data set [1], the half-maximal inhibitory concentration (IC50) is 12.2 µM and the “in vitro cytotoxicity in words, HeLa” value is “cytotoxicity comparable to cisplatin”. In data set [2], the half-maximal inhibitory concentration (IC50) is more than 100 µM and the “in vitro cytotoxicity in words, HCT-116” value is “almost inactive”.
For the compound `C1CNC(=[Se][Pt+2][Se]=C2NCCCN2)NC1.N.N.O=[N+]([O-])[O-].O=[N+]([O-])[O-]` [Complex 4, [Pt(NH3)2(DiazSe)2](NO3)2], in the data set with A549 (lung cancer cells), the IC50 was 6.74 µM and the “in vitro cytotoxicity in words, A549” value is “cytotoxicity higher than cisplatin; also recorded: excellent cytotoxic activity”. In data set [1], the IC50 was 3.7 µM and the “in vitro cytotoxicity in words, HeLa” value is on record as “cytotoxicity higher than cisplatin; also recorded: excellent cytotoxic activity”. Also, in data set [2], the IC50 worked out at 7.7 µM and the “in vitro cytotoxicity in words, HCT-116” value is “cytotoxicity higher than cisplatin; also recorded: excellent cytotoxic activity”.
Consider `C1CCNC(=[Se][Pt+2][Se]=C2NCCCCN2)NC1.N.N.O=[N+]([O-])[O-].O=[N+]([O-])[O-]` [Complex 5, [Pt(NH3)2(DiapSe)2](NO3)2], for which, in the data set on A549 (lung cancer cells), the half-inhibitory concentration (IC50) was more than 100 µM and the “in vitro cytotoxicity in words, A549” value is given as “ineffective”. In data set [1], the IC50 was more than 100 µM and the “in vitro cytotoxicity in words, HeLa” value was “ineffective”. Further, in data set [2], the IC50 is more than 100 µM and the “in vitro cytotoxicity in words, HCT-116” value was “ineffective”.
